From patent US20260098030A1, “NEGATIVE ALLOSTERIC MODULATORS OF METABOTROPIC GLUTAMATE RECEPTOR 2” (Vanderbilt University, priority 2022, published 2026)

What follows are molecules tested against T1, human mGlu2 (Homo sapiens, UniProt Q14416) (assay: mGlu GIRK cell-based thallium flux assay, human mGlu2). Conditions: HEK-293 cells co-expressing human mGlu2 and GIRK, EC80 glutamate.
T1 construct: expressed in transfected cells; host or cells: HEK-293 cells stably co-expressing GIRK channels
T1 sequence (Q14416 19-872): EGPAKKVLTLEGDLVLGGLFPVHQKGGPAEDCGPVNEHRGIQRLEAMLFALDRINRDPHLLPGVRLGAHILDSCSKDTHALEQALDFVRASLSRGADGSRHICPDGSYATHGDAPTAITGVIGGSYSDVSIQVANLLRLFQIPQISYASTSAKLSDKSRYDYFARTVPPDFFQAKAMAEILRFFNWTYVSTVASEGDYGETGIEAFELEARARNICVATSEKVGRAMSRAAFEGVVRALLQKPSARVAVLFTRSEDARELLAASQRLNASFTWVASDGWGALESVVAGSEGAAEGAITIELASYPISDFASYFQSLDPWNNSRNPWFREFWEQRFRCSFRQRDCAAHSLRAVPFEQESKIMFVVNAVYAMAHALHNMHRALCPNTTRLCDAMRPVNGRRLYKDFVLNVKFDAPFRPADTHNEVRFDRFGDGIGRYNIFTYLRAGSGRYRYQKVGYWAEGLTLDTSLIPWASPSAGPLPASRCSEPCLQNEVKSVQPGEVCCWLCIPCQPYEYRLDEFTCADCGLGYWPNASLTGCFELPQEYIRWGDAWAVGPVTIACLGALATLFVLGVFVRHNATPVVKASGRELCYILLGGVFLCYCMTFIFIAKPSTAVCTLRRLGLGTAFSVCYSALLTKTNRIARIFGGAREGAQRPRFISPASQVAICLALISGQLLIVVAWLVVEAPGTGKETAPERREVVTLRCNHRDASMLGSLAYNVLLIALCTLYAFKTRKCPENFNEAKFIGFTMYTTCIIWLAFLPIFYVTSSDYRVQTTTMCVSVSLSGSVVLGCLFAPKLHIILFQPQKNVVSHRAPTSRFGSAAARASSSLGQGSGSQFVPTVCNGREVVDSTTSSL
Experimental: Human embryonic kidney (HEK-293) cell lines stably co-expressing human or rat mGlu2 and G protein-coupled inwardly rectifying potassium (GIRK) channels, or human mGlu3 and GIRK, were used for in vitro evaluation of compound activity in thallium flux assay using a fluorescent thallium indicator dye.
The day before the assay, GIRK cells co-expressing human mGlu3, human or rat mGlu2, as described above, were plated in black-walled, clear-bottomed, amine-coated 384-well plates at a density of 15,000 cells/20 μL/well in the assay medium (glutamine-depleted basal DMEM supplemented with 10% dialyzed FBS, 20 mM HEPES, 1 mM sodium pyruvate). Cells were incubated at 37° C. in the presence of 5% CO2. The next day, assay buffer (Hanks balanced salt solution, 20 mM HEPES, 4.16 mM sodium bicarbonate, pH 7.2) was prepared to dilute compounds and Thallos AM fluorescent dye solution. The 2× Thallos dye solution (final concentration 0.34 μM to the cells) was prepared by mixing the dye stock (2.97 mM in DMSO) to 1:1 with 10% pluronic acid before adding to the assay buffer. Cells were washed with assay buffer using a microplate washer to remove the medium, resulting in 20 μL of buffer remaining in each well. Immediately, 20 μL of 2× Thallos dye solution was added to cells, and incubated for one hour at 25° C. During the cell dye loading incubation period, a 10-point concentration serial dilution of compound was created from a 10 mM DMSO compound stock by performing a 1:3 serial dilution in DMSO using the Bravo liquid handler. The 2× compound plate was generated by transferring 0.24 μL of the diluted compound in each well to a daughter plate using an Echo acoustic liquid handler. This is further diluted in 40 μL assay buffer, resulting in a range from 30 μM to 1.5 nM final concentration in the assay. The agonist plate (5×) was prepared to include EC80 glutamate concentration (a concentration to elicit 80% of a maximally effective glutamate concentration) in thallium buffer (125 mM […], 1 mM magnesium sulfate, 1.8 mM calcium sulfate, 5 mM glucose, 10 mM HEPES, pH 7.2, 12.5 mM thallium sulfate).
After dye-loading, cell plates were washed with assay buffer to remove excess extracellular dye using a microplate washer, resulting in 20 μL of buffer remaining in each well. After a ten-minute equilibration period, cell, compound and agonist plates were loaded into a Hamamatsu μCell kinetic imaging plate reader equipped with liquid handler to monitor fluorescence changes at 480 nm excitation and 540 nm emission settings. Briefly, after collection of baseline fluorescence, 20 μL of compound was added and incubated for two minutes and twenty seconds. This is immediately followed by adding 10 μL of glutamate-thallium buffer to the wells containing compound. The fluorescent signal was monitored an additional 2.5 minutes after the glutamate addition. Multiple reference wells containing no compound received either no glutamate (for a baseline reference), EC80 glutamate, or ECmax glutamate (for normalization to maximum response). Fluorescence was measured throughout the experiment at a frequency of 1 measurement per every 2 seconds before the glutamate addition and a frequency of 1 measurement per every 1 second after the glutamate addition. Each compound concentration series occurred one time in each plate, and replicates from two or three plates were used in each experimental run. Thallium solutions were handled and disposed of according to guidelines from the Vanderbilt University Chemical Safety department.
Data were normalized using a static ratio function (F/F0) by dividing every fluorescent measurement by the initial fluorescent value for the corresponding well. The increase in signal resulting from the glutamate/thallium addition of the second add was measured by determining the slope from 3 seconds to 13 seconds after the addition. […]
In the case of `N#Cc1cccc(-c2cc3c(cc2-c2cc(F)c(F)cc2F)C(=O)NC3)c1` [Compound 140, 3-(1-oxo-6-(2,4,5-trifluorophenyl)isoindolin-5-yl)benzonitrile], the IC50 is reported as 1520 nM.
`O=C1NCc2cc(-c3cccc4c3CNC4=O)c(-c3ccc(F)cc3F)cc21` [Compound 136, 6′-(2,4-difluorophenyl)-[4,5′-biisoindoline]-1,1′-dione] was tested, and the IC50 was 3180 nM.
`Cc1ccc(-c2cc3c(cc2-c2cccc(C#N)c2)CNC3=O)c(C)c1` [Compound 161, 3-(6-(2,4-dimethylphenyl)-1-oxoisoindolin-5-yl)benzonitrile] was tested, and the IC50 was 4590 nM.
In the case of `Cn1cc(S(=O)(=O)Nc2ccccc2-c2cc3c(cc2-c2ccc(F)cc2F)C(=O)NC3)cn1` [Compound 165, N-(2-(6-(2,4-difluorophenyl)-1-oxoisoindolin-5-yl)phenyl)-1-methyl-1H-pyrazole-4-sulfonamide], the IC50 is reported as 637 nM.
Molecule `Nc1ccccc1-c1cc2c(cc1-c1ccc(F)cc1F)C(=O)NC2` [Compound 137, 5-(2-aminophenyl)-6-(2,4-difluorophenyl)isoindolin-1-one] has an IC50 of 816 nM.
`O=C1NCc2cc(-c3ccc(=O)n(C(F)F)c3)c(-c3ccc(F)cc3F)cc21` [Compound 135, 5-(1-(difluoromethyl)-6-oxo-1,6-dihydropyridin-3-yl)-6-(2,4-difluorophenyl)isoindolin-1-one] gave an IC50 of 2020 nM.
`N#Cc1cccc(-c2cc3c(cc2-c2ccc(C(F)(F)F)cc2F)C(=O)NC3)c1` [Compound 144, 3-(6-(2-fluoro-4-(trifluoromethyl)phenyl)-1-oxoisoindolin-5-yl)benzonitrile] was tested, and the IC50 was 3070 nM.
In the case of `CCn1cc(-c2cc3c(cc2-c2ccc(F)cc2F)C(=O)NC3)cn1` [Compound 134, 6-(2,4-difluorophenyl)-5-(1-ethyl-1H-pyrazol-4-yl)isoindolin-1-one], the IC50 is reported as 2350 nM.
`N#Cc1cccc(-c2cc3c(cc2-c2cc(C(F)(F)F)ccc2F)C(=O)NC3)c1` [Compound 180, 3-(6-(2-fluoro-5-(trifluoromethyl)phenyl)-1-oxoisoindolin-5-yl)benzonitrile] showed an IC50 greater than 10000 nM.
Work on `COc1cc(C#N)ccc1-c1cc2c(cc1-c1cccc(C#N)c1)CNC2=O` [Compound 166, 4-(6-(3-cyanophenyl)-3-oxoisoindolin-5-yl)-3-methoxybenzonitrile] yielded an IC50 of 2450 nM.
For `N#Cc1cccc(-c2cc3c(cc2-c2cc(F)ccc2C#N)C(=O)NC3)c1` [Compound 187, 2-(6-(3-cyanophenyl)-3-oxoisoindolin-5-yl)-4-fluorobenzonitrile], the IC50 was 9580 nM.
`COc1cc(F)c(-c2cc3c(cc2-c2cccc(C#N)c2)CNC3=O)cc1F` [Compound 174, 3-(6-(2,5-difluoro-4-methoxyphenyl)-1-oxoisoindolin-5-yl)benzonitrile] gave an IC50 greater than 10000 nM.
For `COc1ccc(-c2cc3c(cc2-c2cccc(C#N)c2)CNC3=O)c(Cl)c1` [Compound 173, 3-(6-(2-chloro-4-methoxyphenyl)-1-oxoisoindolin-5-yl)benzonitrile], the IC50 was 7340 nM.
`CS(=O)(=O)c1ccccc1-c1cc2c(cc1-c1ccc(F)cc1F)C(=O)NC2` [Compound 128, 6-(2,4-difluorophenyl)-5-(2-(methylsulfonyl)phenyl)isoindolin-1-one] showed an IC50 of 3410 nM.
`N#Cc1cccc(-c2cc3c(cc2-c2cc(F)cc(C#N)c2)C(=O)NC3)c1` [Compound 189, 3-(6-(3-cyanophenyl)-3-oxoisoindolin-5-yl)-5-fluorobenzonitrile] showed an IC50 greater than 10000 nM.
`CS(=O)(=O)Nc1cccc(-c2cc3c(cc2-c2ccc(F)cc2F)C(=O)NC3)c1` [Compound 116, N-(3-(6-(2,4-difluorophenyl)-1-oxoisoindolin-5-yl)phenyl)methanesulfonamide] was tested, and the IC50 was 931 nM.
Work on `CC(=O)Nc1ccccc1-c1cc2c(cc1-c1ccc(F)cc1F)C(=O)NC2` [Compound 120, N-(2-(6-(2,4-difluorophenyl)-1-oxoisoindolin-5-yl)phenyl)acetamide] yielded an IC50 of 1050 nM.
`O=C1NCc2cc(-c3cnn(C4COC4)c3)c(-c3ccc(F)cc3F)cc21` [Compound 155, 6-(2,4-difluorophenyl)-5-(1-(oxetan-3-yl)-1H-pyrazol-4-yl)isoindolin-1-one] gave an IC50 greater than 10000 nM.
`COc1ccc(-c2cc3c(cc2-c2cccc(C#N)c2)CNC3=O)c(F)c1F` [Compound 184, 3-(6-(2,3-difluoro-4-methoxyphenyl)-1-oxoisoindolin-5-yl)benzonitrile] was tested, and the IC50 was 1130 nM.
Work on `N#Cc1cc(F)ccc1-c1cc2c(cc1-c1ccc(F)cc1F)C(=O)NC2` [Compound 123, 2-(6-(2,4-difluorophenyl)-1-oxoisoindolin-5-yl)-5-fluorobenzonitrile] yielded an IC50 of 447 nM.
In the case of `COc1ccc(-c2cc3c(cc2-c2cccc(C#N)c2)CNC3=O)c(C)c1` [Compound 175, 3-(6-(4-methoxy-2-methylphenyl)-1-oxoisoindolin-5-yl)benzonitrile], the IC50 is reported as greater than 10000 nM.
Molecule `N#Cc1cccc(-c2cc3c(cc2-c2ccc(F)cc2Cl)C(=O)NC3)c1` [Compound 169, 3-(6-(2-chloro-4-fluorophenyl)-1-oxoisoindolin-5-yl)benzonitrile] has an IC50 of 2250 nM.
`CN1CCN(c2ccccc2-c2cc3c(cc2-c2ccc(F)cc2F)C(=O)NC3)CC1` [Compound 150, 6-(2,4-difluorophenyl)-5-(2-(4-methylpiperazin-1-yl)phenyl)isoindolin-1-one] was tested, and the IC50 was greater than 10000 nM.
`N#Cc1cccc(CCc2cc3c(cc2-c2ccc(F)cc2F)C(=O)NC3)c1` [Compound A4, 3-(2-(6-(2,4-difluorophenyl)-1-oxoisoindolin-5-yl)ethyl)benzonitrile] was tested, and the IC50 was 481 nM.
`COc1ccc(-c2cc3c(cc2-c2cccc(C#N)c2)CNC3=O)c(F)c1` [Compound 157, 3-(6-(2-fluoro-4-methoxyphenyl)-1-oxoisoindolin-5-yl)benzonitrile] showed an IC50 of 736 nM.
For `N#Cc1cccc(-c2cc3c(cc2-c2ccccc2F)C(=O)NC3)c1` [Compound 159, 3-(6-(2-fluorophenyl)-1-oxoisoindolin-5-yl)benzonitrile], the IC50 was 1720 nM.
Molecule `CC(C)Cn1cc(-c2cc3c(cc2-c2ccc(F)cc2F)C(=O)NC3)cn1` [Compound 130, 6-(2,4-difluorophenyl)-5-(1-isobutyl-1H-pyrazol-4-yl)isoindolin-1-one] has an IC50 of 1000 nM.
Molecule `Cn1nncc1-c1cccc(-c2cc3c(cc2-c2ccc(F)cc2F)C(=O)NC3)c1` [Compound 151, 6-(2,4-difluorophenyl)-5-(3-(1-methyl-1H-1,2,3-triazol-5-yl)phenyl)isoindolin-1-one] has an IC50 of 857 nM.
`N#Cc1cccc(-c2cc3c(cc2-c2ccc(C#N)c(F)c2)C(=O)NC3)c1` [Compound 167, 4-(6-(3-cyanophenyl)-3-oxoisoindolin-5-yl)-2-fluorobenzonitrile] was tested, and the IC50 was greater than 10000 nM.
In the case of `N#Cc1cccc(-c2cc3c(cc2-c2ccc(F)c(C#N)c2)C(=O)NC3)c1` [Compound 178, 5-(6-(3-cyanophenyl)-3-oxoisoindolin-5-yl)-2-fluorobenzonitrile], the IC50 is reported as greater than 10000 nM.
`N#Cc1cccc(-c2cc3c(cc2-c2ccc(C#N)cc2F)C(=O)NC3)c1` [Compound 138, 4-(6-(3-cyanophenyl)-3-oxoisoindolin-5-yl)-3-fluorobenzonitrile] gave an IC50 of 537 nM.
Work on `Cc1cc(-c2cc3c(cc2-c2cccc(C#N)c2)CNC3=O)c(F)cc1C#N` [Compound 181, 4-(6-(3-cyanophenyl)-3-oxoisoindolin-5-yl)-5-fluoro-2-methylbenzonitrile] yielded an IC50 greater than 10000 nM.
`CC(C)NC(=O)c1cccc(-c2cc3c(cc2-c2ccc(F)cc2F)C(=O)NC3)c1` [Compound 118, 3-(6-(2,4-difluorophenyl)-1-oxoisoindolin-5-yl)-N-isopropylbenzamide] was tested, and the IC50 was 1990 nM.
For `Cn1ncc(-c2cc3c(cc2-c2ccc(F)cc2F)C(=O)NC3)c1C#N` [Compound 115, 4-(6-(2,4-difluorophenyl)-1-oxoisoindolin-5-yl)-1-methyl-1H-pyrazole-5-carbonitrile], the IC50 was 234 nM.
